Data: article PMC5289641, “Bioactivity of a modified human Glucagon-like peptide-1” (PLoS ONE, 2017)
Where two headings read alike, the source gives them in different places. Where no end group is shown, it is not given here.

What was measured:
[1] = tested on: trypsin; conditions: peptide 10 mg/mL, trypsin 4 mg/mL, PBS pH 7.4, 37°C, SDS-PAGE with silver staining
Method: (§1) Samples (20 μL) treated with either trypsin or pepsin for different lengths of time were then mixed with SDS-PAGE loading buffer (2×), heated at 100°С for 10 min, and then analyzed with SDS-PAGE. Protein bands on the gels were visualized by silver staining.
(§2) The reaction solutions were sampled at different time points and analyzed by SDS-PAGE. […] Negative control is trypsin only.

[2] = target: pepsin (Sus scrofa, UniProt P00791); conditions: peptide 1 mg/mL, pepsin 2 mg/mL, HCl solution pH 1.5~2.0, 37°C, SDS-PAGE with silver staining
pepsin, sequence (P00791 60-385): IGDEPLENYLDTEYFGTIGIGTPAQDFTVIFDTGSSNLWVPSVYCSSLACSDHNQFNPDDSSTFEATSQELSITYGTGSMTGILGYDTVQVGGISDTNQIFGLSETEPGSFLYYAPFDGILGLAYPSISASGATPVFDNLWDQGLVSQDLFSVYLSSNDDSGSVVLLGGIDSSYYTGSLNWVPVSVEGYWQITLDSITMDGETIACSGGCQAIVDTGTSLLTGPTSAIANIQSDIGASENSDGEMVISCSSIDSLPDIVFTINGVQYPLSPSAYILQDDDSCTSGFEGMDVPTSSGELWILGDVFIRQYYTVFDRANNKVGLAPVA
Method: as §1, §2

[3] = tested on: Mouse insulinoma cells (MIN6); conditions: 48 h, CCK-8, OD450
Method: Mouse insulinoma cells (MIN6) (iCell Bioscience, Inc. Shanghai, China) were cultured in a 25 cm^2 cell culture flasks and then seeded into 96-well microplates at a density of 6.0×10^4 cells per well for the cell proliferation assay. […] After 48 h of incubation, 10 μL CCK-8 solution (cell counting kit, Dojindo China Co., Ltd. Shanghai, China) was gently mixed into the culture and the culture was further incubated for 1 to 4 hours. A microplate reader (Bio-Rad, USA) was used to measure cell viability at a 450 nm wavelength (OD450). The cell viability ratio (CRV) was calculated as (A-A0)/A0 × 100% (where A was the absorbance of the treated cell culture and A0 was the OD450 value of a blank (RPMI 1640 medium only)).
Fig 3 Mouse pancreatic β cell proliferation (A), RT-qPCR analysis of gene expression (B), and insulin secretion (C). MIN6 cells were seeded into flat-bottomed 96-well microtiter plates at a density of 6.0×10^4 cells per well. […] The control was cell cultures treated with DPBS only. […] The controls were cells incubated with just DPBS in the presence of 10mM glucose. Cell culture supernatants were collected and insulin concentration determined using a mouse insulin ELISA kit (JiNingShiYe Ltd. Shanghai, China). Data shown represent the mean ±SD (n = 6). Different letters or (*) indicate significant difference at p<0.05.

[4] = tested on: pancreatin; conditions: peptide 2.5 mg/mL, pancreatin 1.0 mg/mL, PBS pH 7.4, 37°C, SDS-PAGE with silver staining

Compound	State after 8 h incubation with trypsin ([1]; 8 h)	Time to degradation by pepsin [2]	Cell viability ratio (CRV) ([3]; 0.3 μM peptide)	Cell viability ratio (CRV) ([3]; 3 μM peptide)	Cell viability ratio (CRV) ([3]; 15 μM peptide)	State after 5 min with pancreatin [4]	State after 15 min in pancreatin [4]	Resistance to trypsin cleavage relative to native GLP-1 [1]	Time resistant to trypsin cleavage [1]	Resistance to pancreatin cleavage relative to native GLP-1 [4]
CC[C@H](C)[C@H](NC(=O)[C@H](Cc1ccccc1)NC(=O)[C@H](CCC(=O)O)NC(=O)[C@H](CCCCN)NC(=O)[C@H](C)NC(=O)[C@H](C)NC(=O)[C@H](CCC(N)=O)NC(=O)CNC(=O)[C@H](CCC(=O)O)NC(=O)[C@H](CC(C)C)NC(=O)[C@H](Cc1ccc(O)cc1)NC(=O)[C@H](CO)NC(=O)[C@H](CO)NC(=O)[C@@H](NC(=O)[C@H](CC(=O)O)NC(=O)[C@H](CO)NC(=O)[C@@H](NC(=O)[C@H](Cc1ccccc1)NC(=O)[C@@H](NC(=O)CNC(=O)[C@H](CCC(=O)O)NC(=O)[C@H](C)NC(=O)[C@@H](N)Cc1c[nH]cn1)[C@@H](C)O)[C@@H](C)O)C(C)C)C(=O)N[C@@H](C)C(=O)N[C@@H](Cc1c[nH]c2ccccc12)C(=O)N[C@@H](CC(C)C)C(=O)N[C@H](C(=O)N[C@@H](CCCCN)C(=O)NCC(=O)N[C@@H](CCCNC(=N)N)C(N)=O)C(C)C [GLP-1, reference compound]	completely degraded	≤ 10 min	15.65%	23.65%	58.56%	quickly degraded	completely destroyed			
HGEGTFTSDVSSYLEGQAAQEFIAWLVDGR-NH2 [mGLP-1]		≤ 10 min	10.58%	20.58%	60.26%	quickly degraded	faint mGLP-1 was still detectable	more resistant	up to 8 hours	more resistant
